Experimental data from patent US11214594B2, “Antimicrobial peptide having synergistic antibacterial effect with antibiotics on multidrug resistant bacteria, and use thereof” (priority 2016, dated 2022).
Converted amounts (≈) assume the structure as drawn. Where two headings read alike, the source gives them in different places. Where a SMILES comes first, the peptide text is derived from it. [ ]: non-standard residue; d: D form.

Tests used:
[1] = system: S. aureus; assay: microbe, parasite or virus in culture; format: cell-based, Staphylococcus aureus
Summary of the method: (§1)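 Broth microdilution in MH medium: bacterial strains diluted to 2×10^6 CFU were mixed with equal volumes of peptide serially diluted twofold in MH medium.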

[2] = system: MDREC 1229; assay: MIC of antibiotic during combined treatment with antimicrobial peptide; format: cell-based, Escherichia coli
Summary of the method: (§2)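 Strains in MH medium at 2×10^6 CFU/ml were mixed with peptide diluted stepwise (2:1) from its MIC, then antibiotic dilutions in MH medium were added to give the antibiotic MIC. The reversed set-up, peptide titrated against fixed antibiotic, gave the peptide MIC.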

[3] = system: MDRST 8007; assay: Minimal inhibitory concentration (MIC), single agent; format: cell-based, Salmonella typhimurium; details: agent alone
Summary of the method: as §1

[4] = system: A. baumannii; assay: MIC of antibiotic during combined treatment with antimicrobial peptide; format: cell-based, Acinetobacter baumannii; details: for Antibiotic MIC, Erythromycin / Antibiotic MIC, Linezolid / Antibiotic MIC, Vancomycin: A. baumannii
Summary of the method: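 Checkerboard-type MIC of peptide–antibiotic mixtures in MH medium: the antibiotic was serially diluted in MH medium and added to wells, then the reversed arrangement was also tested.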

[5] = system: E. coli; format: cell-based, Escherichia coli; details: E. coli
Summary of the method: as §2

[6] = system: MDREC 1229; format: cell-based, Escherichia coli
Summary of the method: as §2

[7] = peptide treatment concentration 1 μg/ml
[8] = peptide treatment concentration 2 μg/ml
[9] = peptide treatment concentration 4 μg/ml
[10] = peptide treatment concentration 6 μg/ml
[11] = peptide treatment concentration 8 μg/ml
[12] = peptide treatment concentration 16 μg/ml
[13] = peptide treatment concentration 32 μg/ml
[14] = peptide treatment concentration 64 μg/ml
[15] = combined with peptide at 1 μg/ml
[16] = combined with peptide at 2 μg/ml
[17] = combined with peptide at 4 μg/ml
[18] = combined with peptide at 6 μg/ml
[19] = combined with peptide at 8 μg/ml
[20] = combined with peptide at 16 μg/ml
[21] = combined with peptide at 32 μg/ml
[22] = combined with peptide at 64 μg/ml

Compound: CC[C@H](C)[C@H](NC(=O)[C@H](CCCCN)NC(=O)[C@H](Cc1c[nH]c2ccccc12)NC(=O)[C@@H](N)CCCNC(=N)N)C(=O)N[C@@H](Cc1ccccc1)C(=O)N[C@@H](CCCCN)C(=O)N[C@@H](CCCCN)C(=O)N[C@H](C(=O)N[C@H](CCCCN)C(=O)N[C@@H](CCCCN)C(=O)N[C@@H](CC(C)C)C(=O)N[C@@H](CC(C)C)C(=O)N[C@@H](Cc1c[nH]cn1)C(=O)N[C@@H](CO)C(=O)N[C@@H](C)C(=O)N[C@@H](CCCCN)C(=O)N[C@@H](CCCCN)C(=O)N[C@@H](Cc1c[nH]c2ccccc12)C(N)=O)[C@@H](C)CC [PapMA-16, RWK IFK KIk KLL HSA KKW-NH2] (H-RWKIFKKI[dK]KLLHSAKKW-NH2; N-terminus assumed)
- Minimal inhibitory concentration MIC [1]: >128 µg/mL
- Antibiotic MIC, Erythromycin [2, 7]: >128 µg/mL
- Antibiotic MIC, Linezolid [2, 7]: >128 µg/mL
- Antibiotic MIC, Vancomycin [2, 7]: >128 µg/mL
- Antibiotic MIC, Erythromycin [2, 8]: 64 µg/mL
- Antibiotic MIC, Linezolid [2, 8]: >128 µg/mL
- Antibiotic MIC, Vancomycin [2, 8]: >128 µg/mL
- Antibiotic MIC, Erythromycin [2, 9]: 32 µg/mL
- Antibiotic MIC, Linezolid [2, 9]: 64 µg/mL
- Antibiotic MIC, Vancomycin [2, 9]: 128 µg/mL
- Antibiotic MIC, Erythromycin [2, 10]: 4 µg/mL
- Antibiotic MIC, Linezolid [2, 10]: 32 µg/mL
- Antibiotic MIC, Vancomycin [2, 10]: 32 µg/mL
- Antibiotic MIC, Erythromycin [2, 11]: 2 µg/mL
- Antibiotic MIC, Linezolid [2, 11]: 16 µg/mL
- Antibiotic MIC, Vancomycin [2, 11]: 16 µg/mL
- Antibiotic MIC, Erythromycin [2, 12]: 1 µg/mL
- Antibiotic MIC, Linezolid [2, 12]: 8 µg/mL
- Antibiotic MIC, Vancomycin [2, 12]: 8 µg/mL
- Antibiotic MIC, Erythromycin [2, 13]: 0.5 µg/mL
- Antibiotic MIC, Linezolid [2, 13]: 4 µg/mL
- Antibiotic MIC, Vancomycin [2, 13]: 4 µg/mL
- Antibiotic MIC, Erythromycin [2, 14]: 0 µg/mL
- Antibiotic MIC, Linezolid [2, 14]: 0 µg/mL
- Antibiotic MIC, Vancomycin [2, 14]: 0 µg/mL
- Minimal inhibitory concentration MIC [3]: 64 µg/mL (≈ 27.4 µM)
- Synergistic effect of antibacterial activity with existing antibiotics compared with PapMA-1 ([4]; A. baumannii and MDRAB 12035): level similar to that of PapMA-1 peptide
- Antibiotic MIC, Erythromycin [4, 15]: 32 µg/mL
- Antibiotic MIC, Linezolid [4, 15]: >128 µg/mL
- Antibiotic MIC, Vancomycin [4, 15]: >128 µg/mL
- Antibiotic MIC, Erythromycin [4, 16]: 16 µg/mL
- Antibiotic MIC, Linezolid [4, 16]: >128 µg/mL
- Antibiotic MIC, Vancomycin [4, 16]: 128 µg/mL
- Antibiotic MIC, Erythromycin [4, 17]: 8 µg/mL
- Antibiotic MIC, Linezolid [4, 17]: 128 µg/mL
- Antibiotic MIC, Vancomycin [4, 17]: 64 µg/mL
- Antibiotic MIC, Erythromycin [4, 18]: 1 µg/mL
- Antibiotic MIC, Linezolid [4, 18]: 32 µg/mL
- Antibiotic MIC, Vancomycin [4, 18]: 32 µg/mL
- Antibiotic MIC, Erythromycin [4, 19]: 0.5 µg/mL
- Antibiotic MIC, Linezolid [4, 19]: 16 µg/mL
- Antibiotic MIC, Vancomycin [4, 19]: 16 µg/mL
- Antibiotic MIC, Erythromycin [4, 20]: 0.25 µg/mL
- Antibiotic MIC, Linezolid [4, 20]: 8 µg/mL
- Antibiotic MIC, Vancomycin [4, 20]: 8 µg/mL
- Antibiotic MIC, Erythromycin [4, 21]: 0 µg/mL
- Antibiotic MIC, Linezolid [4, 21]: 0 µg/mL
- Antibiotic MIC, Vancomycin [4, 21]: 0 µg/mL
- Antibiotic MIC, Erythromycin [4, 22]: 0 µg/mL
- Antibiotic MIC, Linezolid [4, 22]: 0 µg/mL
- Antibiotic MIC, Vancomycin [4, 22]: 0 µg/mL
- Peptide MIC ([5]; with Erythromycin […] (Conc./MIC 1)): 0 µg/mL
- Peptide MIC ([5]; with Linezolid […] (Conc./MIC 1)): 0 µg/mL
- Peptide MIC ([5]; with Vancomycin 1024 μg/ml (Conc./MIC 1)): 0 µg/mL
- Peptide MIC during treatment with antibiotic ([6]; erythromycin 32 μg/ml (Conc./MIC 1/8)): 4 µg/mL
- Peptide MIC during treatment with antibiotic ([6]; erythromycin 64 μg/ml (Conc./MIC 1/4)): 2 µg/mL
- Peptide MIC during treatment with antibiotic ([6]; erythromycin […] (Conc./MIC 1)): 0 µg/mL
- Peptide MIC during treatment with antibiotic ([6]; erythromycin […] (Conc./MIC 1/2)): 2 µg/mL
- Peptide MIC during treatment with antibiotic ([6]; linezolid 64 μg/ml (Conc./MIC 1/8)): 4 µg/mL
- Peptide MIC during treatment with antibiotic ([6]; linezolid 512 μg/ml (Conc./MIC 1)): 0 µg/mL
